The nature of data set [1]: Steady state absorption, emission and fluorescence quantum yield of tC^O-modified RNA transcripts. It is filed as physicochemical. To be noted: free triphosphate. The procedure: A spectroscopic approach was used to quantify the incorporation efficiency of tC^O TP, compared to the canonical CTP. To enable this, all RNA transcripts were purified using a Monarch RNA Cleanup kit, ensuring complete removal of unreacted tC^O TP.
The tC^O-RNA products from the cell-free transcription reactions (prior to polyadenylation and capping, see Methods: Bio for details) were measured as received, i.e. in RNAse free Milli Q water. All measurements were carried out at room temperature (ca. 22° C.) in a 3.0 mm path length quartz cuvette, with a sample volume of ca. 60 μL.
Absorption spectra were recorded on a Cary 5000 (Varian Technologies) spectrophotometer with a wavelength interval of 1.0 nm, integration time of 0.1 s, and a spectral band width (SBW) of 1 nm. All spectra were baseline corrected by subtracting the corresponding absorption from the solvent only. A second-order polynomial Savitzky-Golay (five points) smoothing filter was applied to all spectra. […]
Emission spectra were recorded on a SPEX Fluorolog (Jobin Yvon Horiba) fluorimeter with excitation at 356 nm. […]
Sample fluorescence quantum yields (ΦF) were determined relative to a solution of quinine sulphate (Sigma) in 0.5 M H2SO4 (ΦF,REF=0.546) and calculated according to equation S2. […]

The target in the next data set is T1, T7 RNA polymerase (Escherichia phage T7, UniProt P00573).
T1 construct: purchased Thermo Scientific
T1 sequence (P00573 whole entry): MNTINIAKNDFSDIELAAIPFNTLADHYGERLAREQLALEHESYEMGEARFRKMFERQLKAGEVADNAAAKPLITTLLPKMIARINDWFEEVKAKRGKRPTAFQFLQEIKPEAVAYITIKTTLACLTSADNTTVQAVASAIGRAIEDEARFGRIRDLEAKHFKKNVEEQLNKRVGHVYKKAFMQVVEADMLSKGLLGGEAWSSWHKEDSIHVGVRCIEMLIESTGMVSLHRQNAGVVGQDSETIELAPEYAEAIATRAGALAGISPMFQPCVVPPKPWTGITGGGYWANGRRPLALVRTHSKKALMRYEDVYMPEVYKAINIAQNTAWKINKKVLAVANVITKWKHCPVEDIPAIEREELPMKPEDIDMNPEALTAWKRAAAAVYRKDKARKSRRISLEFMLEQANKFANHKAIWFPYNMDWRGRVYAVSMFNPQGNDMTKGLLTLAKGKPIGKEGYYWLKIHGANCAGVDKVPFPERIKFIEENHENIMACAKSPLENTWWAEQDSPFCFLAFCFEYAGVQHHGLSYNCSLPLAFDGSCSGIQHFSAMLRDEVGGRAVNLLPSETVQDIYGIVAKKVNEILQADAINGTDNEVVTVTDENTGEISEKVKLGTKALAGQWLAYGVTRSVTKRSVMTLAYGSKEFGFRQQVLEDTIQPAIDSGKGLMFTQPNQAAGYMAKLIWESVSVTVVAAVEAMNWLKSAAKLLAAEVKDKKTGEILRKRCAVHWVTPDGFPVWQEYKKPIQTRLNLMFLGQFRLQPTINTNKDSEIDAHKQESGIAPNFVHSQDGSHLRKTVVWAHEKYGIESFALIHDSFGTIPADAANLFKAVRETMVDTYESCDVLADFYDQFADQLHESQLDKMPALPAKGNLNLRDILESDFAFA
The data set is described as follows: Cell-free in vitro transcription with T7 RNA polymerase (tC^O TP/CTP ratios 0-100%). Type of data set: biochemical, bacteriophage.

In the next data set the target is T2, SP6 RNA polymerase (Enterobacteria phage SP6, UniProt P06221).
T2 construct: purchased Thermo Scientific
T2 sequence (P06221 1-874): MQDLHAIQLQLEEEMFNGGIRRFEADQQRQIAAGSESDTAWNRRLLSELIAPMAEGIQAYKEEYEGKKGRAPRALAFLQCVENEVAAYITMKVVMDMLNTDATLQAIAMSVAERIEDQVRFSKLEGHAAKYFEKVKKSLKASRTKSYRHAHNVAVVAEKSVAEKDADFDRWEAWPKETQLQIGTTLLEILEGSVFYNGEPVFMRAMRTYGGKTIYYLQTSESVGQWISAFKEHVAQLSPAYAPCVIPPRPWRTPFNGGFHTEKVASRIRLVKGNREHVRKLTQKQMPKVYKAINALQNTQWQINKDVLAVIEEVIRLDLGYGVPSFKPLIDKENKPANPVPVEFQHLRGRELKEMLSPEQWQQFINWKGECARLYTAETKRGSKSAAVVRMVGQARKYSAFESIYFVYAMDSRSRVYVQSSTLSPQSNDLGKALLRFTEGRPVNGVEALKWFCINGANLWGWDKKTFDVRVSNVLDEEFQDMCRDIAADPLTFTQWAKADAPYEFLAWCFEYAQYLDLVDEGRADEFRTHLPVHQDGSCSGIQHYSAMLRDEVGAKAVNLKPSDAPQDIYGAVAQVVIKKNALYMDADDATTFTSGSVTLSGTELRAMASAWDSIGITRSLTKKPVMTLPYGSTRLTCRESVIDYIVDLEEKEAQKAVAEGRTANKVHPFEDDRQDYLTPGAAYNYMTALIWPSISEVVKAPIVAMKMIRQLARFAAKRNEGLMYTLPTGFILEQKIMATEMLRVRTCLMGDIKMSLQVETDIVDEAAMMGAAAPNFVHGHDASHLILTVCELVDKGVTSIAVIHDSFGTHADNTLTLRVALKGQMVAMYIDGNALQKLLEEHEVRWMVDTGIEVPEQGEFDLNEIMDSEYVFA
The data set is described as follows: Cell-free in vitro transcription with SP6 RNA polymerase (tC^O TP/CTP ratios 0-100%). It is filed as biochemical, bacteriophage. To be noted: tC^O TP/canonical CTP ratios 0 to 100%, agarose bleach gel.

Regarding “((2R,3S,4R,5R)-3,4-dihydroxy-5-(2-oxo-2,10-dihydro-3H-benzo[b]pyrimido[4,5-e][1,4]oxazin-3-yl)tetrahydrofuran-2-yl)methyl triphosphate [tC^O TP]”, in data set [1], the “tC^O-band absorption λmax” value is 360 nm. Also, at T7 RNA polymerase (calculated from absorption at 260 nm and 370 nm of purified transcripts), the “kC/ktC^O, ratio of first-order rate constants for incorporation of CTP vs. tC^O TP” value is given as 0.96-1.4. In addition, the “transcription and tC^O incorporation into full-length H2B:GFP mRNA” value is “Efficient transcription and tC^O incorporation” at T7 RNA polymerase (tC^O TP/canonical CTP ratios 0 to 100%, agarose bleach gel); “Efficient transcription and tC^O incorporation” on SP6 RNA polymerase.

Values taken from patent US20230219995A1, “FLUORESCENT CYTOSINE ANALOGUES AND THEIR APPLICATION IN TRANSCRIPTION AND TRANSLATION” (STEALTH LABELS BIOTECH AB, priority 2020, published 2023).
